In PMC8119466, “A screen of FDA-approved drugs identifies inhibitors of protein tyrosine phosphatase 4A3 (PTP4A3 or PRL-3)” (Scientific Reports, 2021):
Structures can show the parent of a compound that is named as a salt. Where two headings read alike, the source gives them in different places.

Tests used:
Type in all cases: biochemical
recombinant PRL-1 = target: T1, recombinant PRL-1 (Homo sapiens, UniProt Q93096); assay: In vitro phosphatase assay (DiFMUP hydrolysis), PRL-1; note: test concentration or dose not given here
T1 construct: 6xHis (N, cleaved yes); made in house; host or cells: E. coli One Shot BL21 Star
T1 sequence (Q93096 1-173): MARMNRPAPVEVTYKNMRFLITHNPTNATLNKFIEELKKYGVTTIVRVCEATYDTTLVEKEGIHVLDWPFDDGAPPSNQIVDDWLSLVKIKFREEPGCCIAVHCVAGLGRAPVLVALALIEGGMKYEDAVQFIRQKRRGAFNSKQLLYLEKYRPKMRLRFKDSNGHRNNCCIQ

recombinant PRL-2 = target: T2, recombinant PRL-2 (Homo sapiens, UniProt Q12974); assay: In vitro phosphatase assay (DiFMUP hydrolysis), PRL-2;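 note: PRL-2 activity read as DiFMUP hydrolysis after 20 min at room temperature with drug, enzyme first pre-reduced at 4 °C for 20 min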
T2 construct: 6xHis (N, cleaved yes); made in house; host or cells: E. coli One Shot BL21 Star
T2 sequence (Q12974 1-167): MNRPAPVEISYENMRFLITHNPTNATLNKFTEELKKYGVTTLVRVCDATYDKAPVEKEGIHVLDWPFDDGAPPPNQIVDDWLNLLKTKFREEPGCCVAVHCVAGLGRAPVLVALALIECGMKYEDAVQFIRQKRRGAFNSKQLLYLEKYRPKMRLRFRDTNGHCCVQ

recombinant PRL-3 = target: T3, recombinant PRL-3 (Homo sapiens, UniProt O75365); assay: In vitro phosphatase assay (DiFMUP hydrolysis), PRL-3; note: test concentration or dose not given here
T3 construct: 6xHis (N, cleaved yes); made in house; host or cells: E. coli One Shot BL21 Star

[1] = FDA-approved drug screen, compared to DMSO
[2] = FDA-approved drug screen, activity compared to DMSO

T3 sequence (O75365 whole entry): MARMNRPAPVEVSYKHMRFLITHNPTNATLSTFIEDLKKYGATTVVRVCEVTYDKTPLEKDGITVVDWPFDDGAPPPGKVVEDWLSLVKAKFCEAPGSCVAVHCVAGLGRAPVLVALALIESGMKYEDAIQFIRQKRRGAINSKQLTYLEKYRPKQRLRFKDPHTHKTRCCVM

Row | Structure (SMILES) | % Phosphatase Activity (compared to DMSO) PRL-1 (recombinant PRL-1; [1]) | % Phosphatase Activity (compared to DMSO) PRL-2 (recombinant PRL-2; [1]) | % Phosphatase Activity (compared to DMSO) PRL-3 (recombinant PRL-3; [1]) | further results
1 | COc1c(C)c2c(c(O)c1C/C=C(\C)CCC(=O)O)C(=O)OC2 [Mycophenolic acid] | 125% | 100% | 85% | 
2 | CN1CCN(c2ccc3nc(-c4c(N)c5c(F)cccc5[nH]c4=O)[nH]c3c2)CC1 [Dovitinib (TKI-258, CHIR-258)] | 87% | 96% | 74% | 
3 | CC1CCc2cc(F)cc3c(=O)c(C(=O)O)cn1c23 (stereo not drawn) [Flumequine] | 122% | 112% | 96% | 
4 | O=C(O)c1cn(-c2ccc(F)cc2)c2cc(N3CCNCC3)c(F)cc2c1=O [Sarafloxacin HCl] | 108% | 108% | 116% | 
5 | CC(C(=O)O)c1ccc(C(=O)c2cccs2)cc1 (stereo not drawn) [Suprofen] |  |  |  | % Phosphatase Activity (compared to DMSO) PRL-1 (recombinant PRL-1; [2]): 93%; % Phosphatase Activity (compared to DMSO) PRL-2 (recombinant PRL-2; [2]): 95%; % Phosphatase Activity (compared to DMSO) PRL-3 (recombinant PRL-3; [2]): 92%
6 | Cc1ccc(S(=O)(=O)NC(=O)NN2CCCCCC2)cc1 [Tolazamide] |  |  |  | % Phosphatase Activity (compared to DMSO) PRL-1 (recombinant PRL-1; [2]): 81%; % Phosphatase Activity (compared to DMSO) PRL-2 (recombinant PRL-2; [2]): 84%; % Phosphatase Activity (compared to DMSO) PRL-3 (recombinant PRL-3; [2]): 82%
7 | CN(C)CCC(c1ccccc1)c1ccccn1 (stereo not drawn) [Pheniramine Maleate] | 98% | 104% | 70% | 
8 | CN(C)Cc1ccc(S(=O)(=O)n2ccc(/C=C/C(=O)NO)c2)cc1 [Resminostat] | 102% | 113% | 90% | 
9 | O=C(O)CCCc1ccccc1 [Sodium Phenylbutyrate] |  |  |  | % Phosphatase Activity (compared to DMSO) PRL-1 (recombinant PRL-1; [2]): 103%; % Phosphatase Activity (compared to DMSO) PRL-2 (recombinant PRL-2; [2]): 110%; % Phosphatase Activity (compared to DMSO) PRL-3 (recombinant PRL-3; [2]): 82%
10 | CN1CCCC(n2nc(Cc3ccc(Cl)cc3)c3ccccc3c2=O)CC1 (stereo not drawn) [Azelastine HCl] | 121% | 113% | 87% | 
11 | Cc1ccc(S(=O)(=O)Nc2nc3ccccc3nc2Nc2ccc3nsnc3c2)cc1 [Pilaralisib (XL147)] | 94% | 65% | 98% | 
12 | COc1cc(/C=C/C(=O)CC(=O)/C=C/c2ccc(O)c(OC)c2)ccc1O [Curcumin] | 78% | 77% | 85% | 
13 | Cc1ccc(C)c(OCCCC(C)(C)C(=O)O)c1 [Gemfibrozil] | 93% | 95% | 76% | 
14 | CC(C)(C)c1ccc(C(O)CCCN2CCC(C(O)(c3ccccc3)c3ccccc3)CC2)cc1 (stereo not drawn) [Terfenadine] |  |  |  | % Phosphatase Activity (compared to DMSO) PRL-1 (recombinant PRL-1; [2]): 96%; % Phosphatase Activity (compared to DMSO) PRL-2 (recombinant PRL-2; [2]): 100%; % Phosphatase Activity (compared to DMSO) PRL-3 (recombinant PRL-3; [2]): 91%
15 | O=C([O-])c1cc(=O)c2c(OCC(O)COc3cccc4oc(C(=O)[O-])cc(=O)c34)cccc2o1.[Na+].[Na+] [Disodium Cromoglycate] | 93% | 78% | 93% | 
16 | CCCCCCCCc1ccc(CCC(N)(CO)CO)cc1.Cl [Fingolimod (FTY720) HCl] | 104% | 95% | 116% | 
17 | Cc1cn[nH]c1 [Fomepizole] | 102% | 102% | 78% | 
18 | Oc1ccc(Cl)c2cccnc12 [Cloxiquine] | 108% | 100% | 90% | 
19 | C[N+](C)(C)CCCCCC[N+](C)(C)C [Hexamethonium Bromide] | 87% | 89% | 84% | 
20 | NS(=O)(=O)c1cc2c(cc1Cl)NC(C(Cl)Cl)NS2(=O)=O (stereo not drawn) [Trichlormethiazide] |  |  |  | % Phosphatase Activity (compared to DMSO) PRL-1 (recombinant PRL-1; [2]): 100%; % Phosphatase Activity (compared to DMSO) PRL-2 (recombinant PRL-2; [2]): 93%; % Phosphatase Activity (compared to DMSO) PRL-3 (recombinant PRL-3; [2]): 75%

Row | Structure (SMILES) | % Phosphatase Activity (compared to DMSO) PRL-1 (recombinant PRL-1; [1]) | % Phosphatase Activity (compared to DMSO) PRL-2 (recombinant PRL-2; [1]) | % Phosphatase Activity (compared to DMSO) PRL-3 (recombinant PRL-3; [1]) | further results
21 | NCC1(CC(=O)O)CCCCC1 [Gabapentin] | 105% | 92% | 87% | 
22 | CNC[C@H](O)c1ccc(O)c(O)c1 [Epinephrine HCl] |  |  |  | % Phosphatase Activity (compared to DMSO) PRL-1 (recombinant PRL-1): 98%; % Phosphatase Activity (compared to DMSO) PRL-2 (recombinant PRL-2): 132%; % Phosphatase Activity (compared to DMSO) PRL-3 (recombinant PRL-3): 90%
23 | CO[C@@]12[C@H](COC(N)=O)C3=C(C(=O)C(C)=C(N)C3=O)N1C[C@@H]1N[C@@H]12 [Mitomycin C] | 68% | 54% | 64% | 
24 | O=c1n(CCCN2CCN(c3cccc(Cl)c3)CC2)nc2ccccn12 [Trazodone HCl] |  |  |  | % Phosphatase Activity (compared to DMSO) PRL-1 (recombinant PRL-1; [2]): 146%; % Phosphatase Activity (compared to DMSO) PRL-2 (recombinant PRL-2; [2]): 142%; % Phosphatase Activity (compared to DMSO) PRL-3 (recombinant PRL-3; [2]): 93%
25 | CO[C@H]1/C=C/O[C@@]2(C)Oc3c(C)c(O)c4c(c3C2=O)C2=NC3(CCN(CC(C)C)CC3)NC2=C(NC(=O)/C(C)=C\C=C\[C@H](C)[C@H](O)[C@@H](C)[C@@H](O)[C@@H](C)[C@H](OC(C)=O)[C@@H]1C)C4=O [Rifabutin] | 61% | 63% | 72% | 
26 | N#Cc1ccc(C(c2ccc(C#N)cc2)n2cncn2)cc1 [Letrozole] | 94% | 85% | 74% | 
27 | CC(=O)OCC(COC(C)=O)OC(C)=O [Triacetin] |  |  |  | % Phosphatase Activity (compared to DMSO) PRL-1 (recombinant PRL-1; [2]): 93%; % Phosphatase Activity (compared to DMSO) PRL-2 (recombinant PRL-2; [2]): 96%; % Phosphatase Activity (compared to DMSO) PRL-3 (recombinant PRL-3; [2]): 85%
28 | CCCN(CCc1cccs1)[C@H]1CCc2c(O)cccc2C1 [Rotigotine] | 100% | 99% | 82% | 
29 | CC(=O)O.CC(=O)O.CC[C@H](C)C[C@H](C)CCCCCCCCC(=O)N[C@H]1C[C@@H](O)[C@@H](NCCN)NC(=O)[C@@H]2[C@@H](O)CCN2C(=O)[C@H]([C@H](O)CCN)NC(=O)[C@H]([C@H](O)[C@@H](O)c2ccc(O)cc2)NC(=O)[C@@H]2C[C@@H](O)CN2C(=O)[C@H]([C@@H](C)O)NC1=O [Caspofungin Acetate] | 106% | 113% | 109% | 
30 | CCC1(c2ccc(N)cc2)CCC(=O)NC1=O (stereo not drawn) [Aminoglutethimide] | 94% | 107% | 77% | 
31 | CC(=O)C1C(=O)C=C(C)OC1=O (stereo not drawn) [Dehydroacetic acid] | 99% | 98% | 90% | 
32 | CCOC(N)=O [Urethane] |  |  |  | % Phosphatase Activity (compared to DMSO) PRL-1 (recombinant PRL-1; [2]): 99%; % Phosphatase Activity (compared to DMSO) PRL-2 (recombinant PRL-2; [2]): 100%; % Phosphatase Activity (compared to DMSO) PRL-3 (recombinant PRL-3; [2]): 91%
33 | Nc1cccc2c1CN(C1CCC(=O)NC1=O)C2=O (stereo not drawn) [Lenalidomide (CC-5013)] | 87% | 95% | 84% | 
34 | C/C(=C\C(=O)OCCCCCCCCC(=O)O)C[C@@H]1OC[C@H](C[C@@H]2O[C@H]2[C@@H](C)[C@H](C)O)[C@@H](O)[C@H]1O [Mupirocin] | 92% | 97% | 69% | 
35 | CCOC(=O)C1=C[C@]2(CC)CCCN3CCc4c(n1c1ccccc41)[C@@H]32 [Vinpocetine] |  |  |  | % Phosphatase Activity (compared to DMSO) PRL-1 (recombinant PRL-1; [2]): 95%; % Phosphatase Activity (compared to DMSO) PRL-2 (recombinant PRL-2; [2]): 114%; % Phosphatase Activity (compared to DMSO) PRL-3 (recombinant PRL-3; [2]): 79%
36 | Cc1cccc(CN2CCN(C(c3ccccc3)c3ccc(Cl)cc3)CC2)c1.Cl.Cl (stereo not drawn) [Meclizine 2HCl] | 103% | 112% | 96% | 
37 | CC(=O)OCC(=O)[C@@]1(O)[C@H](C)C[C@H]2[C@@H]3CCC4=CC(=O)C=C[C@]4(C)[C@@]3(F)[C@@H](O)C[C@@]21C [Dexamethasone Acetate] | 90% | 93% | 86% | 
38 | NS(=O)(=O)Cc1noc2ccccc12 [Zonisamide] |  |  |  | % Phosphatase Activity (compared to DMSO) PRL-1 (recombinant PRL-1; [2]): 104%; % Phosphatase Activity (compared to DMSO) PRL-2 (recombinant PRL-2; [2]): 89%; % Phosphatase Activity (compared to DMSO) PRL-3 (recombinant PRL-3; [2]): 78%
39 | CNC(=O)c1ccc(Nc2ncc(C(F)(F)F)c(NCc3nccnc3N(C)S(C)(=O)=O)n2)cc1 [Defactinib (VS-6063, PF-04554878)] | 98% | 87% | 89% | 
40 | Nc1nc2c(ncn2CCC(CO)CO)c(=O)[nH]1 [Penciclovir] | 98% | 95% | 74% | 
